Source: ChEMBL document CHEMBL4507284, “Data for DCP probe BI-1230” (2021)

What was measured:
[1] = test system: Tyrosine-protein kinase ABL1 (Homo sapiens), P00519 [Q252H]; conditions: Compound concentration 1000.0 nM
[2] = test system: ALK tyrosine kinase receptor (Homo sapiens), Q9UM73 [L1196M]; conditions: Compound concentration 1000.0 nM
[3] = target: 5'-AMP-activated protein kinase catalytic subunit alpha-1 (Homo sapiens) (UniProt Q13131); conditions: Compound concentration 1000.0 nM
[4] = target: Mitotic checkpoint serine/threonine-protein kinase BUB1 (Homo sapiens) (UniProt O43683); conditions: Compound concentration 1000.0 nM
[5] = target: Citron Rho-interacting kinase (Homo sapiens) (UniProt O14578); conditions: Compound concentration 1000.0 nM
[6] = target: Dual specificity protein kinase CLK1 (Homo sapiens) (UniProt P49759); conditions: Compound concentration 1000.0 nM
[7] = target: Casein kinase I isoform alpha-like (Homo sapiens) (UniProt Q8N752); conditions: Compound concentration 1000.0 nM
[8] = target: Death-associated protein kinase 1 (Homo sapiens) (UniProt P53355); conditions: Compound concentration 1000.0 nM
Chain of Death-associated protein kinase 1 (Homo sapiens) (P53355 whole entry, looked up): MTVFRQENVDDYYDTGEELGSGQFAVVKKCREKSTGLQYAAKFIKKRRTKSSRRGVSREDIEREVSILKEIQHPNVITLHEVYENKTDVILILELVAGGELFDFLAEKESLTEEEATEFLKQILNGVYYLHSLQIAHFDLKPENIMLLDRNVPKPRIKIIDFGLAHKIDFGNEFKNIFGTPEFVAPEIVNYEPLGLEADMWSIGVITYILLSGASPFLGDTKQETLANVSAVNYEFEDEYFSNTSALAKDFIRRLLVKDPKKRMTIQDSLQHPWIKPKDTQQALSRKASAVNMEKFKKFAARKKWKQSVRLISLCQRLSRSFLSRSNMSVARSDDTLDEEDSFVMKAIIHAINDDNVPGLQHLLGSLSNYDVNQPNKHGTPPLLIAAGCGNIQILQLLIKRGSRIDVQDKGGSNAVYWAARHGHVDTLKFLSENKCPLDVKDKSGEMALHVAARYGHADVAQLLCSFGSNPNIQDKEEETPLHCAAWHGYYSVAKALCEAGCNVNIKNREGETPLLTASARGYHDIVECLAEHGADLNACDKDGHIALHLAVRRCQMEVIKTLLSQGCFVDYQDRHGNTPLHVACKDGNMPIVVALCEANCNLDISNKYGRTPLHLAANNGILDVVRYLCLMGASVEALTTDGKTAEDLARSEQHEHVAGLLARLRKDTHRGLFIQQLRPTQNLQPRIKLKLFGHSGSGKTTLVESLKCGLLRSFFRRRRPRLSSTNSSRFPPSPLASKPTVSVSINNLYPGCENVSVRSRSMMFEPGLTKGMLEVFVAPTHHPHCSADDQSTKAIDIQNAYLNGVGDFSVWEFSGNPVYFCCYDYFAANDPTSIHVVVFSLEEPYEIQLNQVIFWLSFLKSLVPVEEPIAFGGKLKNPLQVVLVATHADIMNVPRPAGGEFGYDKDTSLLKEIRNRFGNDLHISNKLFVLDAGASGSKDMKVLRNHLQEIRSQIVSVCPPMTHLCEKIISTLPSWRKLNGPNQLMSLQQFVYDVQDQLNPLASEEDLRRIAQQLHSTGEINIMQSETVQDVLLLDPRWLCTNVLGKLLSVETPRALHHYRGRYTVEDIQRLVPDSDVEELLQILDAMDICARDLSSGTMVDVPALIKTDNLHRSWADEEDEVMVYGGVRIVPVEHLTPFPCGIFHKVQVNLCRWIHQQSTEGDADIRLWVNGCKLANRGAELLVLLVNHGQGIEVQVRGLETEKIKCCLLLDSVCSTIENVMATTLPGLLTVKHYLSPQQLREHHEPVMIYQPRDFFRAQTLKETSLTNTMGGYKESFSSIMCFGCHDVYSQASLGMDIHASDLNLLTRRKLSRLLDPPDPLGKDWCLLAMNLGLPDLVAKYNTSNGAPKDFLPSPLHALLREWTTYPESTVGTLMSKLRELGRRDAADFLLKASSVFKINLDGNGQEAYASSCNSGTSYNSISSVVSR

[9] = target: Serine/threonine-protein kinase DCLK3 (Homo sapiens) (UniProt Q9C098); conditions: Compound concentration 1000.0 nM
[10] = target: Mitogen-activated protein kinase kinase kinase 12 (Homo sapiens) (UniProt Q12852); conditions: Compound concentration 1000.0 nM
Chain of Mitogen-activated protein kinase kinase kinase 12 (Homo sapiens) (Q12852 whole entry): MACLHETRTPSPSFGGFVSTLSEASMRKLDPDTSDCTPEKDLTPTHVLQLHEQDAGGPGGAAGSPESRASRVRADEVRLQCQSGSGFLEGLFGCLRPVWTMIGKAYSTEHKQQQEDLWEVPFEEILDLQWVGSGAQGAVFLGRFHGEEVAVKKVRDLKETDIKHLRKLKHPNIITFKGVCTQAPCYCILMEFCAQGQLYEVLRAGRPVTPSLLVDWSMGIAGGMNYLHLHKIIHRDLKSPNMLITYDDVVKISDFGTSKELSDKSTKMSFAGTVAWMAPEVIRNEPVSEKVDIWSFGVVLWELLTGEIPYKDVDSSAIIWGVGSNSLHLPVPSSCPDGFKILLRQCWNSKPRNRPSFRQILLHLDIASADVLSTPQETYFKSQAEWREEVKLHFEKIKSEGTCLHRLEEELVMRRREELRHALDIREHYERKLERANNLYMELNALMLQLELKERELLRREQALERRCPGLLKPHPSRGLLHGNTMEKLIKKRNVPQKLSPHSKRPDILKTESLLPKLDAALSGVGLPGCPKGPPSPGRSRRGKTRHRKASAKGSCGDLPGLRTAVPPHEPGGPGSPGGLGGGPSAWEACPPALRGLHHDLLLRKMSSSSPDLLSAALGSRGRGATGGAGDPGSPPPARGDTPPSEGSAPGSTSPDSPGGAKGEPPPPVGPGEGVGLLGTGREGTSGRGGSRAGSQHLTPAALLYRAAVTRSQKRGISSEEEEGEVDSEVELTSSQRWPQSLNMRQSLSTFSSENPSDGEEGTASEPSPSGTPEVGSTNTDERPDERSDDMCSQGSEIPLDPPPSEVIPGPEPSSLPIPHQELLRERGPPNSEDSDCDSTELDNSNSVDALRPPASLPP

[11] = test system: Epidermal growth factor receptor (Homo sapiens), P00533 [T790M]; conditions: Compound concentration 1000.0 nM
[12] = target: Receptor tyrosine-protein kinase erbB-3 (Homo sapiens) (UniProt P21860); conditions: Compound concentration 1000.0 nM
[13] = target: Serine/threonine-protein kinase/endoribonuclease IRE1 (Homo sapiens) (UniProt O75460); conditions: Compound concentration 1000.0 nM
[14] = test system: Receptor-type tyrosine-protein kinase FLT3 (Homo sapiens), P36888 [D835Y]; conditions: Compound concentration 1000.0 nM
[15] = test system: Receptor-type tyrosine-protein kinase FLT3 (Homo sapiens), P36888 [UNDEFINED MUTATION]; conditions: Compound concentration 1000.0 nM
[16] = test system: Receptor-type tyrosine-protein kinase FLT3 (Homo sapiens), P36888 [R834Q]; conditions: Compound concentration 1000.0 nM
[17] = target: G protein-coupled receptor kinase 3 (Homo sapiens) (UniProt P35626); conditions: Compound concentration 1000.0 nM
[18] = target: Glycogen synthase kinase-3 beta (Homo sapiens) (UniProt P49841); conditions: Compound concentration 1000.0 nM
[19] = target: Homeodomain-interacting protein kinase 3 (Homo sapiens) (UniProt Q9H422); conditions: Compound concentration 1000.0 nM
[20] = target: Mitogen-activated protein kinase kinase kinase kinase 1 (Homo sapiens) (UniProt Q92918); conditions: Compound concentration 1000.0 nM
[21] = target: Serine/threonine-protein kinase ICK (Homo sapiens) (UniProt Q9UPZ9); conditions: Compound concentration 1000.0 nM
[22] = target: Mitogen-activated protein kinase kinase kinase kinase 3 (Homo sapiens) (UniProt Q8IVH8); conditions: Compound concentration 1000.0 nM
[23] = target: Serine/threonine-protein kinase MARK1 (Homo sapiens) (UniProt Q9P0L2); conditions: Compound concentration 1000.0 nM
[24] = target: Microtubule-associated serine/threonine-protein kinase 1 (Homo sapiens) (UniProt Q9Y2H9); conditions: Compound concentration 1000.0 nM
[25] = target: Dual specificity mitogen-activated protein kinase kinase 1 (Homo sapiens) (UniProt Q02750); conditions: Compound concentration 1000.0 nM
[26] = target: Misshapen-like kinase 1 (Homo sapiens) (UniProt Q8N4C8); conditions: Compound concentration 1000.0 nM
[27] = target: Serine/threonine-protein kinase 4 (Homo sapiens) (UniProt Q13043); conditions: Compound concentration 1000.0 nM
[28] = target: Phosphatidylinositol 3-kinase C2 domain-containing subunit gamma (Homo sapiens) (UniProt O75747); conditions: Compound concentration 1000.0 nM
[29] = test system: Phosphatidylinositol 4,5-bisphosphate 3-kinase catalytic subunit alpha isoform (Homo sapiens), P42336 [E545K]; conditions: Compound concentration 1000.0 nM
[30] = target: Phosphatidylinositol 4,5-bisphosphate 3-kinase catalytic subunit beta isoform (Homo sapiens) (UniProt P42338); conditions: Compound concentration 1000.0 nM
[31] = target: cAMP-dependent protein kinase catalytic subunit beta (Homo sapiens) (UniProt P22694); conditions: Compound concentration 1000.0 nM
[32] = target: Serine/threonine-protein kinase PLK1 (Homo sapiens) (UniProt P53350); conditions: Compound concentration 1000.0 nM
Chain of Serine/threonine-protein kinase PLK1 (Homo sapiens) (P53350 whole entry): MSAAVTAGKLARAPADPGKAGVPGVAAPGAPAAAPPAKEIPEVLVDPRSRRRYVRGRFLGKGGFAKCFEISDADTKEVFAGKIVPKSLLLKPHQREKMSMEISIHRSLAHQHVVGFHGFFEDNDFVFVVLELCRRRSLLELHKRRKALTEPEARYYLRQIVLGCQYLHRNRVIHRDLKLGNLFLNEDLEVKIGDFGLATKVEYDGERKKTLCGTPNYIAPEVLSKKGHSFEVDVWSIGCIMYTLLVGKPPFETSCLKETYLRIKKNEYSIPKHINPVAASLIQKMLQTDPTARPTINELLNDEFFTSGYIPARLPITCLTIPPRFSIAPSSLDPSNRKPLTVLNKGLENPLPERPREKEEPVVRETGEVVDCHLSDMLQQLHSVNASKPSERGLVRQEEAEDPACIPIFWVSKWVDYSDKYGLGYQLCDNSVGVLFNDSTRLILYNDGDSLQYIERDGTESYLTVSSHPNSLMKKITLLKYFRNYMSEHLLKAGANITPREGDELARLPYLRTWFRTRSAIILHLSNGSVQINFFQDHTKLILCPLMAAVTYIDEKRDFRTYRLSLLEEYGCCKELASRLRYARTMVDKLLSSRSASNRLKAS

[33] = target: Serine/threonine-protein kinase PLK3 (Homo sapiens) (UniProt Q9H4B4); conditions: Compound concentration 1000.0 nM
Chain of Serine/threonine-protein kinase PLK3 (Homo sapiens) (Q9H4B4 whole entry, looked up): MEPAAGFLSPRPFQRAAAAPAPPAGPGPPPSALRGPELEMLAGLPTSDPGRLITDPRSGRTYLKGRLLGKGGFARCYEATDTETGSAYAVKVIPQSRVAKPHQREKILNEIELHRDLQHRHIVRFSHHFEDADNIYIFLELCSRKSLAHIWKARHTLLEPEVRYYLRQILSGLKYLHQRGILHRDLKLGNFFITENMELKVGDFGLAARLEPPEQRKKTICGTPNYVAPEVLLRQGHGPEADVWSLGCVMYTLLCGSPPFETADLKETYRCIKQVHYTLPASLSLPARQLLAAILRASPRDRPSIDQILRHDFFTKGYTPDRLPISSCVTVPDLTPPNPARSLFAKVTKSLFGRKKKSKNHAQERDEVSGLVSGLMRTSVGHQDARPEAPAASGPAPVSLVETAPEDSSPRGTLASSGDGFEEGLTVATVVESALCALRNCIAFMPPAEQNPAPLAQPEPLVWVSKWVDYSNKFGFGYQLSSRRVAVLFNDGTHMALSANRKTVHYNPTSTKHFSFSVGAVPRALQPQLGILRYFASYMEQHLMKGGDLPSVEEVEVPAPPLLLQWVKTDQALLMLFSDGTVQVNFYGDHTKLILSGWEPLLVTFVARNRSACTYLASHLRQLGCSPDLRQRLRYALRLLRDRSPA

[34] = target: Protein kinase C eta type (Homo sapiens) (UniProt P24723); conditions: Compound concentration 1000.0 nM
[35] = target: Protein-tyrosine kinase 2-beta (Homo sapiens) (UniProt Q14289); conditions: Compound concentration 1000.0 nM
[36] = target: NUAK family SNF1-like kinase 2 (Homo sapiens) (UniProt Q9H093); conditions: Compound concentration 1000.0 nM
[37] = target: Serine/threonine-protein kinase TNNI3K (Homo sapiens) (UniProt Q59H18); conditions: Compound concentration 1000.0 nM
[38] = target: Non-receptor tyrosine-protein kinase TYK2 (Homo sapiens) (UniProt P29597); conditions: Compound concentration 1000.0 nM
[39] = target: Serine/threonine-protein kinase ULK2 (Homo sapiens) (UniProt Q8IYT8); conditions: Compound concentration 1000.0 nM
[40] = target: Serine/threonine-protein kinase WNK4 (Homo sapiens) (UniProt Q96J92); conditions: Compound concentration 1000.0 nM
[41] = target: Mitogen-activated protein kinase kinase kinase 19 (Homo sapiens) (UniProt Q56UN5); conditions: Compound concentration 1000.0 nM
[42] = target: Mitogen-activated protein kinase kinase kinase 20 (Homo sapiens) (UniProt Q9NYL2); conditions: Compound concentration 1000.0 nM
[43] = target: Histamine H1 receptor (Homo sapiens) (UniProt P35367); conditions: Compound concentration 10.0 uM
Chain of Histamine H1 receptor (Homo sapiens) (P35367 whole entry): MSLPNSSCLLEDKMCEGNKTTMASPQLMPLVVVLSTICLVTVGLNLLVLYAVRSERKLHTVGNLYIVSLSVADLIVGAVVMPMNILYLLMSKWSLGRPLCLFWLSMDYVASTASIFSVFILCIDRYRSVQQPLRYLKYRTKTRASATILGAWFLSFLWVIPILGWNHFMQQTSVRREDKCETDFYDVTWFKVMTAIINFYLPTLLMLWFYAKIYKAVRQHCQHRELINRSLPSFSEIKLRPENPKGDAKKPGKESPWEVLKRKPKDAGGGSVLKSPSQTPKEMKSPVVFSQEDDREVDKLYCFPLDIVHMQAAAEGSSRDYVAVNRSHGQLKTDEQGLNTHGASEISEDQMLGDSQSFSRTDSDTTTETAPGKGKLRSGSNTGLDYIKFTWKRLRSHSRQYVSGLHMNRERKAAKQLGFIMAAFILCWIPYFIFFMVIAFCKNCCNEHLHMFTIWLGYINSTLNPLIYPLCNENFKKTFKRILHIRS

[44] = target: Muscarinic acetylcholine receptor M4 (Homo sapiens) (UniProt P08173); conditions: Compound concentration 10.0 uM
Chain of Muscarinic acetylcholine receptor M4 (Homo sapiens) (P08173 whole entry): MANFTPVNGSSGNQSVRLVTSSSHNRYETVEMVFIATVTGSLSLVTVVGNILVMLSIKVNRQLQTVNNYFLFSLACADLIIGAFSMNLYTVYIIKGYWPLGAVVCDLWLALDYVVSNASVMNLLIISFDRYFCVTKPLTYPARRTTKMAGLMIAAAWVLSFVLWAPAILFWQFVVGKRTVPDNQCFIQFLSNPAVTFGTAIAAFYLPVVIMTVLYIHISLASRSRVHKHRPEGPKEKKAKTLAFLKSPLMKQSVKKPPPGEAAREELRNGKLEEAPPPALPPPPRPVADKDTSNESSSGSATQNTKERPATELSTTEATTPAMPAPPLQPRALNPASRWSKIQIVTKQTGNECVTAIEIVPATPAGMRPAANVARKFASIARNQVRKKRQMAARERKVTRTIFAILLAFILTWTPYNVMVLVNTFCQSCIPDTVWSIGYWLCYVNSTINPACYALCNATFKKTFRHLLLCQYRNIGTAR

Chain of 5'-AMP-activated protein kinase catalytic subunit alpha-1 (Homo sapiens) (Q13131 whole entry, looked up): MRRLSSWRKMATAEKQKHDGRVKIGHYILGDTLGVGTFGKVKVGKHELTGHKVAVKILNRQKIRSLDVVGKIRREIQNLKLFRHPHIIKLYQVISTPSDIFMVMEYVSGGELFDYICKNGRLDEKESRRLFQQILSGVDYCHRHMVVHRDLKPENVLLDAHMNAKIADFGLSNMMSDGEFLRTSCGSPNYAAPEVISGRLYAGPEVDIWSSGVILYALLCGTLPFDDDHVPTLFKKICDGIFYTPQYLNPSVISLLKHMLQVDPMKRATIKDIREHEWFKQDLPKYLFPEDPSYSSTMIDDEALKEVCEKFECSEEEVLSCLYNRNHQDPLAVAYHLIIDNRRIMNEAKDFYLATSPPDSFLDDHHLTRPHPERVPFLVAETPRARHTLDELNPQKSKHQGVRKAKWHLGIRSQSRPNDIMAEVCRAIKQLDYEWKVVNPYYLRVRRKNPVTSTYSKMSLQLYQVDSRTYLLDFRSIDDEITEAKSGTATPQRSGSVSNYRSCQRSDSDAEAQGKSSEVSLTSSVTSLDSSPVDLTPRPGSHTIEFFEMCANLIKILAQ

COc1ccc2c(O[C@@H]3C[C@H]4C(=O)N[C@]5(C(=O)O)CC5/C=C\CCCCC[C@H](NC(=O)OC5CCCC5)C(=O)N4C3)cc(-c3csc(NC(=O)C(C)C)n3)nc2c1C (stereo partly drawn) [BI 1230]
inactive: residual activity [1] 80% | residual activity [2] 97% | residual activity [3] 100% | residual activity [4] 96% | residual activity [5] 99% | residual activity [6] 98% | residual activity [7] 100% | residual activity [8] 100% | residual activity [9] 96% | residual activity [10] 92% | residual activity [11] 85% | residual activity [12] 88% | residual activity [13] 79% | residual activity [14] 87% | residual activity [15] 71% | residual activity [16] 92% | residual activity [17] 99% | residual activity [18] 100% | residual activity [19] 83% | residual activity [20] 100% | residual activity [21] 68% | residual activity [22] 100% | residual activity [23] 100% | residual activity [24] 98% | residual activity [25] 85% | residual activity [26] 62% | residual activity [27] 100% | residual activity [28] 86% | residual activity [29] 68% | residual activity [30] 62% | residual activity [31] 100% | residual activity [32] 77% | residual activity [33] 79% | residual activity [34] 100% | residual activity [35] 100% | residual activity [36] 91% | residual activity [37] 100% | residual activity [38] 100% | residual activity [39] 95% | residual activity [40] 91% | residual activity [41] 70% | residual activity [42] 83% | inhibition [43] 31.5% | inhibition [44] 10.2%

O=C(N[C@H]1CCCCC/C=C\C2C[C@@]2(C(=O)O)NC(=O)[C@@H]2C[C@@H](Oc3ccncc3)CN2C1=O)OC1CCCC1 (stereo partly drawn) [BI 1675]
inactive: residual activity [1] 85% | residual activity [2] 100% | residual activity [3] 100% | residual activity [4] 100% | residual activity [5] 89% | residual activity [6] 100% | residual activity [7] 100% | residual activity [8] 83% | residual activity [9] 100% | residual activity [10] 100% | residual activity [11] 91% | residual activity [12] 84% | residual activity [13] 80% | residual activity [14] 98% | residual activity [15] 100% | residual activity [16] 93% | residual activity [17] 100% | residual activity [18] 89% | residual activity [19] 100% | residual activity [20] 93% | residual activity [21] 85% | residual activity [22] 100% | residual activity [23] 100% | residual activity [24] 82% | residual activity [25] 92% | residual activity [26] 100% | residual activity [27] 100% | residual activity [28] 71% | residual activity [29] 95% | residual activity [30] 100% | residual activity [31] 100% | residual activity [32] 71% | residual activity [33] 100% | residual activity [34] 91% | residual activity [35] 100% | residual activity [36] 100% | residual activity [37] 100% | residual activity [38] 98% | residual activity [39] 100% | residual activity [40] 100% | residual activity [41] 93% | residual activity [42] 90% | inhibition [43] 23.9% | inhibition [44] 9.48%
